Here are results for two compounds from patent US20250059395A1, “SURFACTANTS FOR INKS, PAINTS, AND ADHESIVES” (AdvanSix Resins & Chemicals LLC, priority 2023, published 2025).

The data set can be described thus: Critical micelle concentration and surface tension by Wilhelmy plate method. Format: physicochemical. The note with it: comparison of Surfactant 9 and Comparative Surfactant. From the text:
As surfactant concentration increases, surface tension decreases. Once the surface is completely overlaid with surfactant molecules, micelles begin to form. This point represents the CMC, as well as the minimum surface tension. Further addition of surfactant will not further affect the surface tension. CMC may therefore be measured by observing the change in surface tension as a function of surfactant concentration. One such method for measuring this value is the Wilhemy plate method. A Wilhelmy plate is usually a thin iridium-platinum plate attached to a balance by a wire and placed perpendicularly to the air-liquid interface. The balance is used to measure the force exerted on the plate by wetting. This value is then used to calculate the surface tension (Y) according to Equation 1: […]
Nuclear magnetic resonance (NMR) spectroscopy was performed on a Bruker 500 MHz spectrometer. The critical micelle concentration (CMC) was determined by the Wilhelmy plate method at 23° C. with a tensiometer (DCAT 11, DataPhysics Instruments GmbH) equipped with a Pt—Ir plate. Dynamic surface tension was determined with a bubble pressure tensiometer (Krüss BP100, Krüss GmbH), at 23° C. Contact angle was determined with the optical contact angle goniometer (OCA 15 Pro, DataPhysics GmbH) equipped with a digital camera.

Turning to `C[N+](C)(CCCCCC(=O)O)CCCCCC(=O)NCCC[Si](O[Si](C)(C)C)(O[Si](C)(C)C)O[Si](C)(C)C` [Surfactant 9, N-(5-carboxypentyl)-6-((3-(1,1,1,5,5,5-hexamethyl-3-((trimethylsilyl)oxy)trisiloxan-3-yl)propyl)amino)-N,N-dimethyl-6-oxohexan-1-aminium bromide], the “surfactant properties (activity in words)” value was “excellent activity”.

In the case of `C[N+](C)(CCCCCC(=O)NCCC[Si](O[Si](C)(C)C)(O[Si](C)(C)C)O[Si](C)(C)C)CC(=O)O` [Comparative Surfactant, N-(carboxymethyl)-6-((3-(1,1,1,5,5,5-hexamethyl-3-((trimethylsilyl)oxy)trisiloxan-3-yl)propyl)amino)-N,N-dimethyl-6-oxohexan-1-aminium bromide], the “surfactant properties (activity in words)” value is recorded as “inferior surfactant properties”.
